Each structure is given as a SMILES string.

Series [1] relates to Mus musculus. The experiment in a line: Antialzheimer activity in scopolamine-induced impairment in ICR mouse assessed as total entries at 15 mg/kg, ip administered once a day for 10 days pretreated with scopolamine for 30 mins and measured at 5th day of training session by Morris water maze test (reference value: 2.19 +/- 0.16). The format is functional.
Series [2] deals with Mus musculus. The experiment in a line: Antialzheimer activity in scopolamine-induced impairment in ICR mouse assessed as latency time at 15 mg/kg, ip administered once a day for 10 days pretreated with scopolamine for 30 mins and measured at 5th day of training session by Morris water maze test (reference value: 29.4 +/- 5.77 sec). In kind it is functional.
Series [3] concerns Mus musculus. The experiment in a line: Antialzheimer activity in scopolamine-induced impairment in ICR mouse assessed as total distance to platform at 15 mg/kg, ip administered once a day for 10 days pretreated with scopolamine for 30 mins and measured at 5th day of training session by Morris water maze test (reference value: 6.56 +/- 1.27 m). The format is functional.
The target in series [4] is T1, Amine oxidase [flavin-containing] B (Homo sapiens, UniProt P27338).
T1 sequence (P27338 whole entry): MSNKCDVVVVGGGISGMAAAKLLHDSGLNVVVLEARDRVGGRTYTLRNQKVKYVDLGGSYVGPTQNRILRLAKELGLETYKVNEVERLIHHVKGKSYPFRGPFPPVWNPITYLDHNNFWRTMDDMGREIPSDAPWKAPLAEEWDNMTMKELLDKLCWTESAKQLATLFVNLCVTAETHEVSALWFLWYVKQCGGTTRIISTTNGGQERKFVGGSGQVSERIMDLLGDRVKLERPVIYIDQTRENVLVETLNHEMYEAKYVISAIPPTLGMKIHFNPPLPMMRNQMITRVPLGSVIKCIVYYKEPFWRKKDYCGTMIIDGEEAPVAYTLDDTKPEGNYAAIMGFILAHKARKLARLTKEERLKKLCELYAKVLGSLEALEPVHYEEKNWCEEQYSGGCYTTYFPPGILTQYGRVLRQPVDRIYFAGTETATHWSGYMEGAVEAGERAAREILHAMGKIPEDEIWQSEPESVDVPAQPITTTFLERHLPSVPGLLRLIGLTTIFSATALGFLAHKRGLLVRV
The experiment in a line: Inhibition of human recombinant MAO-B expressed in baculovirus infected BTI insect cells using kynuramine as substrate at 100 nM incubated for 10 mins followed by substrate addition by fluorimetric analysis relative to control.

The subject of series [5] is PC-12. The experiment in a line: Neuroprotective activity in amyloid beta (1 to 42 residues) (unknown origin)-induced ROS production in rat PC12 cells assessed as intracellular ROS level at 10 uM pretreated for 36 hrs followed by incubation with DCFH-DA for 10 mins by flow cytometry analysis (reference value: 30.7%). In kind it is functional. Background: In flow cytometry, cells or beads pass a laser one at a time.

Series [6] deals with PC-12. The experiment in a line: Neuroprotective activity against amyloid beta (1 to 42 residues) induced cytotoxicity in rat PC12 cells assessed as cell viability at 10 uM incubated for 24 hrs by MTT assay (reference value: 100%). The format is functional. Conditions: PC-12, 24 h, read-out: Activity.
Series [7] can be described thus: Metal chelating activity assessed as Fe3+ complex formation by measuring stability constant for Fe(I)2 in using pre Fe+3 complexed compound (FeCl3) in 0.1 M KCl :DMSO solution UV-pH titration based spectrophotometric analysis.
Series [8] deals with T1, Amine oxidase [flavin-containing] B. Nature of the series: Inhibition of human recombinant MAO-B expressed in baculovirus infected BTI insect cells using kynuramine as substrate incubated for 10 mins followed by substrate addition by fluorimetric analysis.
Series [9] in a line: Metal chelating activity assessed as Fe3+ complex formation by measuring stability constant for Fe(I)3 in using pre Fe+3 complexed compound (FeCl3) in 0.1 M KCl :DMSO solution UV-pH titration based spectrophotometric analysis.
Series [10] is described as follows: Dissociation constant, pKa2 of compound for dissociation of the 3-hydroxyl group in 0.1 M KCl incubated for 1 min by UV-pH titration based spectrophotometric analysis. The format is physicochemical.
A short description of series [11]: Metal chelating activity assessed as iron chelation.
The nature of series [12]: Dissociation constant, pKa1 of compound for protonation of the 4-oxo group in 0.1 M KCl incubated for 1 min by UV-pH titration based spectrophotometric analysis. In kind it is physicochemical.
Series [13] in a line: Metal chelating activity assessed as Fe3+ complex formation by measuring stability constant for FeI in using pre Fe+3 complexed compound (FeCl3) in 0.1 M KCl :DMSO solution UV-pH titration based spectrophotometric analysis.
Series [14] can be described thus: Cytotoxicity against rat PC12 cells assessed as cell viability at 50 uM incubated for 24 hrs by MTT assay relative to control. In kind it is cell-based, PC-12. As to conditions: read-out: Activity.
Series [15] can be described thus: Cytotoxicity against rat PC12 cells assessed as cell viability at 25 uM incubated for 24 hrs by MTT assay relative to control. The format is cell-based, PC-12. As to conditions: read-out: Activity. For orientation: Formazan colour is commonly taken as a measure of viable cells.
The nature of series [16]: Cytotoxicity against rat PC12 cells assessed as cell viability at 12.5 uM incubated for 24 hrs by MTT assay relative to control. The format is cell-based, PC-12. Conditions: read-out: Activity.
A short description of series [17]: Cytotoxicity against rat PC12 cells assessed as cell viability at 6.25 uM incubated for 24 hrs by MTT assay relative to control. The format is cell-based, PC-12. Conditions: read-out: Activity.
A short description of series [18]: Cytotoxicity against rat PC12 cells assessed as cell viability at 3.13 uM incubated for 24 hrs by MTT assay relative to control. In kind it is cell-based, PC-12. As to conditions: read-out: Activity.

As to `Nc1c2c(nc3ccccc13)CCCC2` [TACRINE], the Activity in the series with Mus musculus [1] amounted to 4.63; in the series on Mus musculus [3] it was 4.28 m. Moreover, the Time in the series with Mus musculus [2] worked out at 18.03 s.
Broadly, the inhibition is the drop in the measured response relative to a control, in per cent. For `C#CCN(C)Cc1ccccc1` [PARGYLINE], the Activity amounted to 3.81 in the series with Mus musculus [1] and 4.37 m in the series with Mus musculus [3]. Besides, in the series with Mus musculus [2], the Time is given as 20.85 s. Further, the inhibition at 0.1 µM in [4] is 53%.
For `CC12CC3CC(C)(C1)CC(N)(C3)C2` [MEMANTINE], the Activity with PC-12 [5] stood at 30.51%; in the series on Mus musculus [1] it was 5.19; in the series on Mus musculus [3], 3.52 m. Further, in the series with Mus musculus [2], the Time was determined as 13.42 s. For the same molecule, the viability at 10 µM in the series with PC-12 [6] was determined as 55.2%.
The IC50 is the concentration needed to halve the response being measured. The pKa is the pH at which an ionisable group is half protonated. Read a low pKa as a stronger acid or weaker base. `CCCOc1ccc2cc(C(=O)NCCn3ccc(=O)c(O)c3C)c(=O)oc2c1`: the log(activity) in series [7] amounted to 26; in series [9], 34.6; in series [13] it was 14.6. Moreover, the IC50 in series [8] was found to be 135 nM. Besides, the figures for the pKa at 1 min in series [10] and in series [12] were 9.75 and 3.31, respectively. Also, the inhibition at 0.1 µM in [4] is 45.9%. Further, the pFe3+ in series [11] came out at 18.1.
As to `Cc1cccc(COc2ccc3cc(C(=O)NCCn4ccc(=O)c(O)c4C)c(=O)oc3c2)c1`, the log(activity) in [7] was 24.4; in series [9] it was 35.2; in series [13], 14.2. The half-inhibitory concentration (IC50) in series [8] is 144 nM. The pKa at 1 min in series [10] was 9.72; in [12] it was 3.27. Besides, the inhibition at 0.1 µM in [4] amounted to 44.6%. Moreover, the pFe3+ in [11] came to 18.8.
On to `Cc1c(O)c(=O)ccn1CCNC(=O)c1cc2ccc(OCc3cccc(F)c3)cc2oc1=O`, for which the log(activity) was 24.7 in [7], 33.3 in [9] and 14.1 in series [13]. The IC50 in series [8] was 108 nM. Further, the pKa at 1 min in series [10] stood at 9.65; in series [12], 3.32. Moreover, the inhibition at 0.1 µM in series [4] amounted to 49.1%. Besides, in [11], the pFe3+ amounted to 17.1.
Turning to `COc1cccc2cc(C(=O)NCCn3ccc(=O)c(O)c3C)c(=O)oc12`, the log(activity) in series [7] is 25.4; in series [9], 34.1; in [13] it was 14.2. Also, the half-maximal inhibitory concentration (IC50) in series [8] worked out at 111 nM. Further, the pKa at 1 min in series [10] amounted to 9.55; in series [12] it was 3.22. In addition, the inhibition at 0.1 µM in series [4] turned out to be 46%. Besides, the pFe3+ in series [11] amounted to 18.2.
For `Cc1c(O)c(=O)ccn1CCNC(=O)c1cc2cc(OCc3ccccc3)ccc2oc1=O`, the log(activity) in series [7] turned out to be 24.3; in [9], 32; in series [13], 13.7. Also, the half-maximal inhibitory concentration (IC50) in [8] was 100 nM. In addition, the pKa at 1 min in series [10] was determined as 9.32; in [12], 3.25. In series [4], the inhibition at 0.1 µM was 47.7%. The pFe3+ in series [11] was 16.9.
Regarding `C#CCOc1ccc2cc(C(=O)NCCn3ccc(=O)c(O)c3C)c(=O)oc2c1`, the log(activity) was determined as 25.5 in series [7], 34.1 in [9] and 14.2 in [13]. In addition, the IC50 in [8] was determined as 143 nM. Also, the pKa at 1 min in [10] was 9.68; in series [12], 3.32. Further, the inhibition at 0.1 µM in series [4] was 20.7%. Moreover, the pFe3+ in series [11] worked out at 17.9.
In the case of `Cc1ccc2cc(C(=O)NCCn3ccc(=O)c(O)c3C)c(=O)oc2c1`, the log(activity) in series [7] was 25.4; in series [9], 34.3; in series [13], 14.2. In series [8], the IC50 is 163 nM. The pKa at 1 min came to 9.75 in [10] and 3.32 in series [12]. The inhibition at 0.1 µM in series [4] stood at 44.3%. In addition, the pFe3+ in series [11] was 17.8.
For `COc1ccc2cc(C(=O)NCCn3ccc(=O)c(O)c3C)c(=O)oc2c1`, the log(activity) in series [7] was 26.2; in [9], 35.3; in series [13] it was 14.9. Further, in [14], the viability at 24 h, 50 µM is 61.7%. Also, the IC50 in [8] was 87.9 nM. Moreover, the Activity with PC-12 [5] is 8.2%; in the series with Mus musculus [1], 4.63; with Mus musculus [3], 3.87 m. For the same molecule, in [15], the viability at 24 h, 25 µM stood at 90.4%. The viability at 24 h, 12.5 µM in series [16] stood at 98%. Also, the pKa at 1 min is 9.7 in series [10] and 3.27 in series [12]. The Time with Mus musculus [2] is 14.94 s. Moreover, the inhibition at 0.1 µM in [4] is 65.5%. In addition, in series [11], the pFe3+ turned out to be 18.9. The viability at 24 h, 6.25 µM in series [17] amounted to 99.9%. Besides, in [18], the viability at 24 h, 3.13 µM is 98.7%. Besides, in the series on PC-12 [6], the viability at 10 µM was 88.2%.
`Cc1c(O)c(=O)ccn1CCNC(=O)c1cc2ccc(OCc3ccccc3[N+](=O)[O-])cc2oc1=O`: the values for the log(activity) in series [7], in series [9] and in series [13] were 25.9, 34.6 and 15.1, respectively. Further, in series [8], the 50% inhibitory concentration (IC50) was found to be 98.6 nM. Further, the pKa at 1 min amounted to 9.74 in series [10] and 3.24 in series [12]. Further, the inhibition at 0.1 µM in series [4] amounted to 50.6%. Moreover, in [11], the pFe3+ was 18.2.
`Cc1c(O)c(=O)ccn1CCNC(=O)c1cc2ccc(OCc3cccc(Cl)c3)cc2oc1=O`: the log(activity) in series [7] came out at 24.9; in series [9], 34.5; in [13], 14.4. In series [8], the IC50 was determined as 136 nM. In addition, the pKa at 1 min is 9.56 in series [10] and 3.26 in series [12]. In addition, the inhibition at 0.1 µM in series [4] is 47.4%. In addition, the pFe3+ in series [11] is 18.6.
Regarding `Cc1c(O)c(=O)ccn1CCNC(=O)c1cc2ccc(OCc3ccc(F)cc3)cc2oc1=O`, the log(activity) in [7] was 25.1; in series [9], 33.5; in series [13], 14.2. Also, in series [8], the half-inhibitory concentration (IC50) amounted to 128 nM. The pKa at 1 min in [10] was 9.76; in series [12], 3.27. Also, in series [4], the inhibition at 0.1 µM was found to be 48.1%. Further, in series [11], the pFe3+ worked out at 17.
As for `Cc1c(O)c(=O)ccn1CCNC(=O)c1cc2ccc(OCc3ccc(C(F)(F)F)cc3)cc2oc1=O`, the log(activity) came out at 25.1 in [7], 34.9 in series [9] and 14 in [13]. In addition, in series [8], the IC50 was 119 nM. In addition, the pKa at 1 min is 9.83 in series [10] and 3.37 in series [12]. Further, in [4], the inhibition at 0.1 µM turned out to be 47.4%. For the same molecule, in series [11], the pFe3+ was 18.1.

The values are drawn from ChEMBL document CHEMBL4622885, “Rational design, synthesis and biological evaluation of novel multitargeting anti-AD iron chelators with potent MAO-B inhibitory and antioxidant activity” (Bioorg Med Chem, 2020).
